From patent US8426429B2, “2-amino-quinazoline derivatives useful as inhibitors of β-secretase (BACE)” (Jansssen Pharmaceutica N.V., priority 2004, dated 2013) come the findings set out here.

What all share (format): biochemical
The target of assay [1] is T1, β-secretase (BACE) (Homo sapiens, UniProt P56817).
T1 construct: purchased Panvera
Briefly: BACE FS1 % Inhibition Assay. The following applies: read-out: % Inhibition (FS). The procedure, abridged: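 Percent inhibition per compound concentration was referenced to vehicle-treated enzyme and no-enzyme wells. Enzyme at a 4 μg/mL working stock plus compound was mixed for 20 min at room temperature before the FS1 substrate (300 μg/mL working stock) was added for a 1 h room-temperature reaction.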

Assay [2] deals with T1, β-secretase (BACE). Briefly: BACE Assay-2 (FS1 substrate, IC50 and Ki). The following applies: procedure of Example 159, FS1 substrate. As to the method: The FS1-substrate stock solution was prepared in DMSO as a 10 mg/mL solution. The FS1-substrate working solution was prepared by diluting the 10 mg/mL stock solution with substrate assay buffer to a final concentration of […]. The β-secretase (BACE) working solution was prepared by diluting a 0.83 mg/mL BACE stock solution with enzyme assay buffer to a final concentration of 4 μg/mL.
Test compounds were dissolved in DMSO at 10 mM.
The procedure for this assay was as follows: 15 μL of BACE working solution was pipetted into each well of a 96-well plate. To each well was then pipetted 2 μL of test compound at the selected concentration. Test compound and BACE were then mixed with a pipettor and incubated for 20 min at room temperature. To each well was then added 10 μL of the FS1 substrate working solution.
The procedure for the positive control was as follows:15 μL of BACE working solution was pipetted into each well to be used as a positive control. To each well was then pipetted 2 μL of vehicle. Vehicle and BACE were then mixed with a pipettor and incubated for 20 min at room temperature. To each well was then added 10 μL of the FS1 substrate working solution.
For test compounds, measured at multiple concentrations, the measured T0 and T60 values were used to calculate an IC50 value using Graphpad Software (or PIR). For test compounds, Ki inhibition was determined as follows: For each compound concentration and positive control, rate of cleavage of substrate (Vi, where i=compound concentration in μM) was determined as Δ Fluorescence/Δ time (min). Cleavage rates (Vi) were plotted as a function of inhibitor concentration in μM [I]. The Ki was then determined by fitting the following equation to the graph of [I] vs Vi Y=aVmax/(50+24*(1+X/Ki)),

For assay [3], the target named is T1, β-secretase (BACE). Description: BACE % Inhibition Assay ((Aedens)-[…]-(Dabcyl K-amide) substrate). Conditions: % error ±10%. Here is the method: The substrate stock solution was prepared in DMSO as a 10 mg/mL solution. The substrate working solution was prepared by diluting the 10 mg/mL stock solution with substrate assay buffer to a final concentration of […]. The β-secretase (BACE) working solution was prepared by diluting a 0.83 mg/mL BACE stock solution with enzyme assay buffer to a final concentration of 4 μg/mL.
Test compounds were dissolved in DMSO to 10 mM.
The screening procedure for this assay was as follows: 15 μL of BACE working solution was pipetted into each well of a 96-well plate. To each well was then pipetted 2 μL of test compound at the selected concentration. Test compound and BACE were then mixed with a pipettor and incubated for 20 min at room temperature. To each well was then added 10 μL of the substrate working solution. The plates were then incubated for 1 hour at room temperature.
The procedure for the blank was as follows. 15 μL of assay buffer was pipetted into each well to be used as a blank control. To each well was then added 2 μL of vehicle and 10 μL of substrate working solution. The plates were then incubated for 1 hour at room temperature.
The procedure for the positive control was as follows: 15 μl of BACE working solution was pipetted into each well to be used as a positive control. To each well was then pipetted 2 μL of vehicle. Vehicle and BACE were then mixed with a pipettor and incubated for 20 min at room temperature. To each well was then added 10 μL of the substrate working solution. The plates were the incubated for 1 hour at room temperature.
For test compounds, % inhibition was determined at each concentration as follows: […]

For assay [4], the target named is T1, β-secretase (BACE). Briefly: BACE Assay-1 (MCA-substrate, IC50). The following applies: procedure of Example 158. As to the method:
The following standards are reagents were used in this assay: Sodium Citrate trisodium salt dihydrate (Sigma), Citric Acid monohydrate (Merck), PEG8000 (Sigma), MCA-substrate (Bachem), β-secretase (BACE) (Panvera), 96-well plate zwart (Costar (Elscolab)), StatVal (Bachem).
The following standard assay buffer solution was prepared and used in this assay: 0.05 M, pH 5.0 mixture of sodium citrate trisodium salt dihydrate (9.56 g), citric acid monohydrate (3.68 g) and PEG8000 (0.50 g).
The MCA-substrate stock solution was prepared by mixing 10 mg MCA-substrate with 5 mL DMSO for a final solution concentration of 2.0 mg/mL. The substrate work solution was prepared by mixing 0.1 mL substrate in 1.90 mL assay buffer for a final concentration of 0.05 mM. The β-secretase (BACE) work solution was prepared by mixing 8 μL BACE in 2 mL assay buffer for a final concentration of 10 µg/mL.
The screen procedure for this assay was as follows. 60 μL of assay buffer was pippeted into each well of a 96-well plate. To each well was then pipetted 1 μL of test compound at the selected concentration. To each well was then added 20 μL of the β-secretase work solution and […] of the MCA-substrate stock solution.
The procedure for the blank was as follows. 80 μL of assay buffer was pipetted into each well to be used as a blank control. To each well was then added 1 μL of DMSO and 20 μL of MCA-substrate solution in each well.
The procedure for the positive control was as follows. 60 μL of assay buffer was pipetted into each well to be used as a positive control. To each well was then added 1 μL of DMSO, 20 μL of BACE work solution and 20 μL of MCA-substrate stock solution.
For test compounds, measured at multiple concentrations, the measured T0 and T60 values were used to calculate an IC50 value using Graphpad Software (or PIR).

T1 sequence (P56817 46-501): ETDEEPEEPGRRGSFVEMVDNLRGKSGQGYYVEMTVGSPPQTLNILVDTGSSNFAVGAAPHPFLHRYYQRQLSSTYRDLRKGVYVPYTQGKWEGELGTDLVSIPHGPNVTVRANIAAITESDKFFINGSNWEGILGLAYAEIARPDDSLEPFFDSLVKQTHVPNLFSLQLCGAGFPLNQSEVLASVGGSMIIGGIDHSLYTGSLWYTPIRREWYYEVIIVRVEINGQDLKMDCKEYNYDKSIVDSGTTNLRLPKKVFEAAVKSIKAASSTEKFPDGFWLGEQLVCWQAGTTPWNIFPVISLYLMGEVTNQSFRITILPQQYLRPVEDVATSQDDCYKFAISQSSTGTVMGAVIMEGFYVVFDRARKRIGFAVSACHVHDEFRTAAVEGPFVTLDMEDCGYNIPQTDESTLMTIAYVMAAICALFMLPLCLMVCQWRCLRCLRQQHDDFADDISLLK

As to `CC(C)N1CCC(N(C)C(=O)CC[C@@H](C2CCCCC2)N2Cc3cc(Oc4ccccc4)ccc3N=C2N)CC1` [Compound 728], on β-secretase (BACE) [1] (0.3 μM compound, FS1 substrate), the inhibition at 0.3 µM was 43%. The inhibition at 1 µM at β-secretase (BACE) [1] (1 μM compound, FS1 substrate) was determined as 58%. For the same molecule, the inhibition at 3 µM at β-secretase (BACE) [1] (3 μM compound, FS1 substrate) turned out to be 97%. The Ki on β-secretase (BACE) [2] was 0.38 µM.

As to `CN(C(=O)c1cccc(CN2Cc3cc(-c4ccccc4Oc4ccccc4)ccc3N=C2N)c1)C1CCCCC1` [Compound 326], the inhibition at 0.3 µM at β-secretase (BACE) [1] (0.3 μM test compound) was less than 30%. Also, the inhibition at 1 µM on β-secretase (BACE) [1] (1 μM test compound) was found to be 35%. Besides, the inhibition at 3 µM on β-secretase (BACE) [1] (3 μM test compound) was found to be 79%. At β-secretase (BACE) [2], this molecule gave a Ki of 0.42 µM.

For `CC(C)CCC(=O)NCC(C1CCCCC1)N1Cc2cc(Oc3ccccc3)ccc2N=C1N` (centres unmarked) [Compound 388], the inhibition at 0.3 µM against β-secretase (BACE) [3] (0.3 μM compound) came to 107%. Moreover, on β-secretase (BACE) [3] (1 μM compound), the inhibition at 1 µM came out at 119%. Further, at β-secretase (BACE) [3] (3 μM compound), the inhibition at 3 µM amounted to 119%. At β-secretase (BACE) [2], this molecule yielded a Ki of 0.063 µM.

The molecule `NC1=Nc2ccc(Oc3ccccc3)cc2CN1C(CNC(=O)C1CCCC1)C1CCCCC1` (centres unmarked) [Compound 295] returned an IC50 at β-secretase (BACE) [4] of 0.016 µM. Besides, on β-secretase (BACE) [1] (0.3 μM test compound), the inhibition at 0.3 µM was found to be 79%. The inhibition at 1 µM on β-secretase (BACE) [1] (1 μM test compound) came to 106%. The inhibition at 3 µM at β-secretase (BACE) [1] (3 μM test compound) was 116%. This molecule also showed a Ki at β-secretase (BACE) [2] of 0.03 µM.

With `CCCN1Cc2cc(Oc3cccc(CNC(=O)c4c(C)cc(C)cc4C)c3)ccc2N=C1N` [Compound 533], the IC50 against β-secretase (BACE) [4] is 0.17 µM.

On β-secretase (BACE) [4], `CCCN1Cc2cc(Oc3cccc(CNCc4c(OC)cccc4OC)c3)ccc2N=C1N` [Compound 340] registered an IC50 of 2 µM.

Consider `CN(C(=O)[C@@H]1CCCC[C@@H]1N1Cc2cc(Oc3ccccc3)ccc2N=C1N)C1CCCCC1` [Compound 87], for which the “% Inhibition” value at β-secretase (BACE) [3] (3 μM compound) and at β-secretase (BACE) [3] (10 μM compound) was less than 30% each time.

Turning to `CCCN1Cc2cc(Oc3cccc(CNCCCc4ccccc4)c3)ccc2N=C1N` [Compound 430], on β-secretase (BACE) [4], the IC50 is 2.8 µM.

Take `CN(C(=O)[C@@H]1CCC[C@@H]1N1Cc2cc(Oc3ccccc3)ccc2N=C1N)C1CCCCC1` [Compound 72]: the “% Inhibition” value on β-secretase (BACE) [3] (3 μM compound) and at β-secretase (BACE) [3] (10 μM compound) was less than 30% in each case.

Take `CN(C(=O)CCCN1Cc2cc(C(=O)c3ccccc3)ccc2N=C1N)C1CCCCC1` [Compound 10]: 3.7 µM corresponded to half-maximal inhibition against β-secretase (BACE) [4] (IC50).

Turning to `CCCN1Cc2cc(Oc3cccc(CNS(=O)(=O)c4ccccc4)c3)ccc2N=C1N` [Compound 225], the IC50 at β-secretase (BACE) [4] is 2.9 µM.

As for `NC1=Nc2ccc(Oc3ccccc3)cc2CN1Cc1cccc(CNC(=O)C23CC4CC(CC(C4)C2)C3)c1` [Compound 336], the “% Inhibition” value on β-secretase (BACE) [3] (0.3 μM compound), at β-secretase (BACE) [3] (1 μM compound) and on β-secretase (BACE) [3] (3 μM compound) was less than 30% each time.

For `NC1=Nc2ccc(Oc3ccccc3)cc2CN1C(CNC(=O)CCC1CCCC1)C1CCCCC1` (centres unmarked) [Compound 366], the “% Inhibition” value stood at 64% on β-secretase (BACE) [3] (0.3 μM compound), 113% at β-secretase (BACE) [3] (1 μM compound) and 119% on β-secretase (BACE) [3] (3 μM compound).
